# Columns and labels:
# Assay in all cases: relative viability (nuclei count vs DMSO), 5 days (fraction); higher = more cells survive
# CUDC-101 + Tozasertib = compound: C#Cc1cccc(Nc2ncnc3cc(OC)c(OCCCCCCC(=O)NO)cc23)c1 [CUDC-101] + Cc1cc(Nc2cc(N3CCN(C)CC3)nc(Sc3ccc(NC(=O)C4CC4)cc3)n2)n[nH]1 [Tozasertib] (partner 0.1 µM)
# Method in brief: (§1)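 Dosing by pin tool came one day after lung cancer cell lines were seeded in 1536-well plates, using either one drug or a fixed anchor-drug dose plus five library-drug doses (not always all listed) in √10 steps. After 5 days, nuclei were counted on 4× images. Relative viability is treated-well nuclei count divided by vehicle-well nuclei count, and values are medians of duplicate plates.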
# NVP-TAE684 + OSI-027 = compound: COc1cc(N2CCC(N3CCN(C)CC3)CC2)ccc1Nc1ncc(Cl)c(Nc2ccccc2S(=O)(=O)C(C)C)n1 [NVP-TAE684] + COc1cccc2cc(-c3nc([C@H]4CC[C@H](C(=O)O)CC4)n4ncnc(N)c34)[nH]c12 [OSI-027] (partner 0.5 µM)
# Method in brief: as §1
# Vandetanib + Luminespib = compound: COc1cc2/c(=N/c3ccc(Br)cc3F)nc[nH]c2cc1OCC1CCN(C)CC1 [Vandetanib] + CCNC(=O)c1noc(-c2cc(C(C)C)c(O)cc2O)c1-c1ccc(CN2CCOCC2)cc1 [Luminespib] (partner 0.01 µM)
# Method in brief: as §1
# Vandetanib + Alpelisib = compound: COc1cc2/c(=N/c3ccc(Br)cc3F)nc[nH]c2cc1OCC1CCN(C)CC1 [Vandetanib] + Cc1nc(NC(=O)N2CCC[C@H]2C(N)=O)sc1-c1ccnc(C(C)(C)C(F)(F)F)c1 [Alpelisib] (partner 2 µM)
# Method in brief: as §1
Cell Line,relative viability (CUDC-101 + Tozasertib; first compound 0.01 µM),relative viability (CUDC-101 + Tozasertib; first compound 0.03162 µM),relative viability (CUDC-101 + Tozasertib; first compound 0.1 µM),relative viability (CUDC-101 + Tozasertib; first compound 0.3162 µM),relative viability (CUDC-101 + Tozasertib; first compound 1 µM),relative viability (NVP-TAE684 + OSI-027; first compound 0.2 µM),relative viability (NVP-TAE684 + OSI-027; first compound 0.6325 µM),relative viability (Vandetanib + Luminespib; first compound 0.02 µM),relative viability (Vandetanib + Luminespib; first compound 0.06325 µM),relative viability (Vandetanib + Luminespib; first compound 0.2 µM),relative viability (Vandetanib + Luminespib; first compound 0.6325 µM),relative viability (Vandetanib + Luminespib; first compound 2 µM),relative viability (Vandetanib + Alpelisib; first compound 0.02 µM),relative viability (Vandetanib + Alpelisib; first compound 0.06325 µM),relative viability (Vandetanib + Alpelisib; first compound 0.2 µM),relative viability (Vandetanib + Alpelisib; first compound 0.6325 µM),relative viability (Vandetanib + Alpelisib; first compound 2 µM),relative viability (NVP-TAE684 + OSI-027; first compound 2 µM)
PC-3 [JPC-3],0.89,0.847,0.834,0.61,0.314,0.686,0.759,0.724,0.661,0.639,0.745,0.524,1.03,1,0.982,0.736,0.507,–
EPLC-272H,0.216,0.284,0.306,0.231,0.121,0.227,0.251,0.265,–,0.272,0.756,0.276,0.865,0.814,0.96,0.909,0.997,0.203
